Experimental data reported in patent US20240317762A1, “PHTHALAZINONE-BASED PARP-1 INHIBITORS” (Oregon Health & Science University, priority 2021, published 2024).

Key:
R878A PARP-1 = R878A PARP-1 (Homo sapiens, UniProt P09874, R878A); assay: fluorescence polarization DNA competition and affinity assays, R878A mutant; type: binding; settings: with AZ0108
Procedure: FIG. 4B) Helical domain (pink cartoon) movement observed during the simulation, the red arrows indicate length and direction of movement. FIG. 4C) The residue-residue distance observed between the Ca atoms R878-D770 and Y889-V758, the increased distance sampling corresponds to the helical domain movement. FIG. 4D) PARP-1 WT, D770A, or R878A (40 nM) was incubated with a dumbbell DNA probe carrying an internal FAM group and a central nick at 20 nM with or without compound (25 μM) for 30 minutes. An unlabeled competitor was added and the decrease in fluorescence polarization was measured across time. FIG. 4E) The Kd of PARP-1 WT, D770A, or R878A for a DNA dumbbell probe containing a central nick (5 nM) was measured in a fluorescence polarization assay with and without inhibitor (5 μM). Error bars represent Standard Error of the Mean (SEM) (n=3).

D770A PARP-1 = D770A PARP-1 (Homo sapiens, UniProt P09874, D770A); assay: catalytic activity of PARP-1 mutant expressed in HEK 293 cells, D770A; type: biochemical; settings: 3 μM AZ0108
[1] = tested on: pan-nuclear γH2AX in HEK 293T cells; assay: γH2AX immunofluorescence; type: cell-based, human
Procedure: HEK 293T or HEK 293 PARP-1 KO cells were seeded onto poly-d-lysine treated glass coverslips and treated with indicated concentrations of inhibitors for 18 hours. Cells were then washed with 1×PBS and fixed using 4% Sucrose/4% Paraformaldehyde in PBS for 20 minutes. After three washes in 1×PBS, cells were permeabilized in 0.3% Triton X-100 in PBS for 5 minutes followed by an additional three washes in 1×PBS. Coverslips were blocked in 3% BSA/0.1% Triton X-100 in PBS for 1 hour and then placed in primary anti-rabbit phosphoH2Ax antibody (1:200, Cell Signaling) overnight at 4° C. The next morning, cells were washed three times in 1×PBS and treated with blocking solution, 3% BSA/0.1% Triton X-100 in PBS, for 30 minutes before being placed in secondary anti-rabbit Alexa Fluor 647 (1:1000 Jackson Immuno) for 1 hour at RT. After three subsequent 1×PBS washes, coverslips were mounted using ProLong Gold antifade reagent with DAPI (Invitrogen). All immunofluorescence images were taken on a Zeiss ApoTome2 on Axiolmager and analyzed using Zeiss software. Mean intensity of the Alexa Fluor 647 signal was measured after imposing DAPI masks over the nucleus of each cell. All cells within a 20× image, was analyzed (˜3000 cells/condition).
Cell are stained for DAPI and γH2AX. Scale bar indicates 50 μm. FIG. 2B) Quantification of panel a. […] Error bars represent SEM. […] Error bars represent SEM. […] Error bars represent SEM.

HEK 293 PARP-1 KO cells = assay: cell proliferation (MTT) assay in PARP-1 KO cells; type: cell-based, human; settings: PARP-1 KO vs control HEK 293 cells, MTT 72 h
Description: Error bars represent SEM. […] Error bars represent SEM. […] Error bars represent SEM.

PARP-1 [2] = target: T1, PARP-1 (Homo sapiens, UniProt P09874); assay: in-cell competition labeling with ad-olaparib photoaffinity probe; type: cell-based
Procedure: Photocrosslinking in intact cells. HEK293 CRL and PARP-1 KO cells were grown in DMEM for 2 days in a 60 mm dish for 2 days to reach 80-90% confluency. […] Cells were then washed once with PBS, covered with PBS and irradiated for 5 min in the RPR-100 Photochemical Reactor (Rayonet) equipped with 350 nm lamps at 4° C. Cells were lysed on ice in 1% SDS, 1% Triton X-100 and EDTA-free protease inhibitor cocktail (Roche) in PBS for 10 min and then probe sonicated to shear the nuclear DNA. Protein concentration was determined with Bio-Rad Protein assay. The lysate was diluted in PBS to a final Click reaction concentration of 2 mg/mL.
Click Chemistry. Reaction was started by mixing 30 μL of each sample with 15 μL of PBS based 3× Click reaction mixture containing (final concentrations): 100 μM Tris[(1-benzyl-1H-1,2,3triazol-4-yl)methyl]amine (TBTA, Click Chemistry Tools), 1 mM CuSO4, 40 μM tetramethylrhodamine (TAMRA)-azide (Click Chemistry Tools), 1 mM Tris(2-carboxyethyl)phosphine hydrochloride (TCEP, Thermo Fisher) and 15% tert-Butyl alcohol, and let to procced for 1 h at RT while gently shaking. Reactions were stopped by adding 4× Laemmli sample buffer and boiling at 95° C. for 5 min.
In gel fluorescence, western blotting and quantification. Samples were loaded to 8 or 10% SDS-polyacrylamide gels and run until the dye front left the gel. First, in-gel fluorescence was detected with ChemiDoc XRS+ (Biorad) using Rhodamine filter and then the proteins were transferred on nitrocellulose membrane, the membrane was blocked and probed for PARP-1 (1:3000) and alpha-tubulin (1:1000). Both antibodies were from cell signaling. Band intensities we quantified with ImageJ.
FIGS. 6A-6E. […] 0.1 μM ad-olaparib (chemical structure indicated in panel a) was added to the cells for 1 hour before undergoing a UV treatment for 5 minutes in cold PBS. Cells were lysed and sonicated in PBS (1% Triton X-100+1% SDS), clicked with TAMRA-azide and run out on SDS-PAGE. The gel was imaged for TAMRA and probed for PARP-1 (Bethyl Laboratories), and alpha-tubulin (X). FIGS. 6B, 6D) Quantification of western blot images. TAMRA or ADPr values are normalized to PARP-1 within each replicate and plotted as percentage compared to DMSO. Error bars indicate SEM (n=3-4). Statistical significance of off-rate calculated via multiple t-tests (p<0.05). […] Cells were subsequently treated with PARGi (10 μM) for 30 minutes, lysed using RIPA buffer, run out on SDS-PAGE, and probed for ADPr (Cell Signaling) and PARP-1 (Bethyl Laboratories). FIG. 6E) ES-8 cells were treated with indicated concentration of inhibitors for 72 hours before measuring cell viability using the CellTiter-Glo kit (Promega G7573). IC50 values were calculated using R statistical software.

PARP-1 [3] = target: T1, PARP-1; assay: in vitro fluorescence polarization DNA competition assay; settings: 25 μM compound; PARP-1 40 nM; nicked dumbbell DNA probe 20 nM
Description: The full-length WT PARP-1 protein used in these assays was purified as described previously (30).

PARP-1 [4] = target: T1, PARP-1; assay: in vitro PARP-1 auto-PARylation assay (SRPK2 plate assay); type: biochemical; set-up: The full-length WT PARP-1 protein used in these assays; made in house; settings: read-out: IC50 against PARP-1 catalytic activity (auto-PARylation)
Procedure: IC50 SRPK2 Plate Assays were performed as previously described (21). Log(inhibitor) versus response curves were fit using non-linear regression with variable slope. Mean IC50 values for each compound were derived from a minimum of three separate replicates.

T1 sequence (P09874 whole entry): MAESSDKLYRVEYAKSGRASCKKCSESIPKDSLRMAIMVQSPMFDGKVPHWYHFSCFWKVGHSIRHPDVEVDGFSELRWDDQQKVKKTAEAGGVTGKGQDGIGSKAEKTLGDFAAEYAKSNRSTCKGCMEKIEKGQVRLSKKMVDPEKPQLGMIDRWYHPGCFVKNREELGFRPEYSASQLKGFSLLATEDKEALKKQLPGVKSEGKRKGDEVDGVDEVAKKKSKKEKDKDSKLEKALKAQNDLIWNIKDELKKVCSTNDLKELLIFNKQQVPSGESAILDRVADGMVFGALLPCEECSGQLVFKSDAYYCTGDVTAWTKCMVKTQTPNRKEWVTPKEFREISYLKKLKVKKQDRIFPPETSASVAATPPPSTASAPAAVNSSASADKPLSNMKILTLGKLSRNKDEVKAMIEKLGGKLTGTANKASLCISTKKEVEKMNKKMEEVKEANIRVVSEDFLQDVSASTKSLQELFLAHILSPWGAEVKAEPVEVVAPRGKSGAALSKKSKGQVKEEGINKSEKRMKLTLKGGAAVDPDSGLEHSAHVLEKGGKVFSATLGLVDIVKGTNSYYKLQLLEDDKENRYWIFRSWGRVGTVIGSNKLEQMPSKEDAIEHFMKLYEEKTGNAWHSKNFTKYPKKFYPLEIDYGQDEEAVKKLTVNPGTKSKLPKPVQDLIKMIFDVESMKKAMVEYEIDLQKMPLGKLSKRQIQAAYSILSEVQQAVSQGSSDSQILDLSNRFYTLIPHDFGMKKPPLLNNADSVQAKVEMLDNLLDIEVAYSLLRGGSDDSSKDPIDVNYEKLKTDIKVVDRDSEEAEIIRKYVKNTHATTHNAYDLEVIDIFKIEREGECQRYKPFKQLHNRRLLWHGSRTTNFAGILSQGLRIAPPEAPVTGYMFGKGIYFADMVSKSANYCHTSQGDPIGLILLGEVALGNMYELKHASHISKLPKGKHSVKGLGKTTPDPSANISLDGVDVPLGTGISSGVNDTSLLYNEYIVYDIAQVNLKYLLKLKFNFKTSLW
D770A PARP-1, sequence (P09874 whole entry D770A): as the sequence (P09874 whole entry) above, with D770A counted along it
R878A PARP-1, sequence (P09874 whole entry R878A, the tested form may be a part): as the sequence (P09874 whole entry) above, with R878A counted along it

DNA binding to R878A PARP-1 (R878A PARP-1): similarly unaffected
inhibition of D770A PARP-1 activity (D770A PARP-1): inhibited
labeling of PARP-1 by ad-olaparib after pre-treatment (PARP-1 [2]; 10 μM inhibitor, 0.1 μM ad-olaparib): substantially blocked
recovery of labeling of PARP-1 by ad-olaparib after washout (PARP-1 [2]; washout (3 h)): more than 2 fold
exchange of the PARP-1:labled DNA complex with an unlabeled DNA competitor (PARP-1 [3]): substantially reduced
IC50 (PARP-1 [4]): 12 nM
Substance: (S)-4-(difluoro(3-(6-methyl-3-(trifluoromethyl)-5,6,7,8-tetrahydro-[1,2,4]triazolo[4,3-a]pyrazine-7-carbonyl)phenyl)methyl)phthalazin-1(2H)-one [AZ0108]
pan-nuclear γH2AX induction ([1]; HEK 293T cells, 18 hours): dose-dependent increase
dependence of pan-nuclear γH2AX signal on PARP-1 ([1]; HEK293 control vs PARP-1 KO cells, 3 μM AZ0108): dependent on the presence of PARP-1
increase in the EC50 value on cell growth by KO of PARP-1 (HEK 293 PARP-1 KO cells): 43 fold
